Consider 2 compounds from patent US20090004171A1, “COMPOUND PROFILING METHOD” (CYTOPATHFINDER, INC., priority 2007, published 2009).

The subject of test [1] is T-47D cell. To be noted: T-47D human derived breast cancer cell, compared with SK-BR-3; cited from earlier work.
Test [2] relates to MCF7. To be noted: MCF7 breast cancer cells; cited from earlier work.
Test [3] has as its system SK-BR-3. As to conditions: SK-BR-3 breast cancer cell; stated as known; cited from earlier work.
Test [4] deals with SHSY5Y cell. The experiment in a line: Exposure of SHSY5Y neuroblastoma cells to differentiation stimulants (neuron projection extension, marker enzyme expression). To be noted: human neuroblastoma. The format is cell-based. The text has this:
The functions of (1) and (2) are different, but share the same properties in terms of extension of neuron projection. Therefore, cellular components necessary for these two intracellular alteration were specified experimentally by means of RNA interference method. As such, it was obtained that the component collection (3) necessary for the alteration from SHSY5Y to (1) are {JAK1, JAK3, ROR, and RET}. On the other hand, the component collection (4) necessary for the alteration from SHSY5Y cells to (2), are {NTRK1, EPHB2, INSR, RDGFRA, ROR and RET}. When comparing and calculation of intersection is done for (3) and (4), the intersection (5) was obtained to read {ROR and RET}. Next, the collection (6) {JAK1 and JAK3} by subtraction of (3)−(5) and the collection (5) were analyzed in terms of an intermolecular interaction, and the existence of a pathway of a molecular signals from (6) to (5) (FIG. 3A) was determined. Furthermore, the collection (7) which was obtained by the subtraction of (4)−(5), and the collection (5) were analyzed in terms of an intermolecular interaction, and the existence of a pathway of molecular signals from (7) to (5) (FIG. 3B) was further determined. The common components and pathway relating to the projection extension by retinoic acid (RA) and Nerve Growth Factor (NGF) are shown in FIG. 4.

As to `COc1cccc2c1C(=O)c1c(O)c3c(c(O)c1C2=O)C[C@@](O)(C(=O)CO)C[C@@H]3O[C@H]1C[C@H](N)[C@H](O)[C@H](C)O1` [doxorubicin], in test [1], the DXR sensitivity entry is listed as “same DXR sensitivity as the SK-BR-3”. Further, in test [2], the “DXR sensitivity / resistance” value is given as “DXR resistance”. Moreover, the “effect on cell growth” value in test [3] is “growth inhibition”.
On to “Nerve Growth Factor: Nerve Growth Factor, stimulant triggering neurite outgrowth of SHSY5Y cells”, for which, in test [4], the “expression of tyrosine hydroxylase” value is listed as “tyrosine hydroxylase was expressed” and the “extension of neuron projection” value was “caused extension of neuron projection”.
